One data set relates to RIPK3 complexes. Put plainly: DSS crosslinking of necrosome complexes resolved by western blotting. It is filed as cell-based, murine. Particulars: DSS crosslinking, western blot. As to the method: A confluent monolayer of the indicated cells was incubated with the appropriate treatment for 30 minutes at 37 degrees. Cells were lysed in a modified, Tris-free NP40 buffer (30 mM HEPES pH 7.4, 150 mM NaCl, and 1% NP40) without protease inhibitors. Protein lysate was quantified according to standard BCA assay (Pierce) and fifty micrograms of each sample was treated with 0.1 mM DSS crosslinking agent (Thermo Scientific, #21658) for 30 minutes at room temperature; the reaction was quenched by the addition of Tris-HCl pH 7.2 to a final concentration of 50 mM for 15 minutes. Crosslinked samples were analyzed by Western blot as described above, using the anti-2A primary antibody for detection.

Data set [1] relates to RIPK3 necrosome complex (RIPK1, caspase-8). Put plainly: Anti-FLAG immunoprecipitation of necrosome complexes. The format is cell-based, murine. Particulars: AP1 30 minutes. The method, then:
Immunoprecipitation of necrosome complexes were carried out using rabbit anti-FLAG antibodies, and TruBlot IP reagents (Rockland Immunochemicals) to eliminate non-specific signals from immunoglobulin heavy and light chains. Briefly, cell lines were treated as indicated and lysed in NP40 buffer (30 mM Tris, 150 mM NaCl, and 1% NP40) supplemented with protease inhibitors. Twenty micrograms of each sample were reserved for “input,” while 500 μg of total protein from each sample were immunoprecipitated with 0.5 μg antibody conjugated to 30 μL TruBlot anti-Rabbit IgG beads Immunocomplexes were washed 4 times in NP40 buffer, eluted by boiling, then run on western blot. Western blots were analyzed using standard primary antibodies, but TruBlot anti-Rabbit and anti-Mouse HRP-conjugated 14 secondary antibodies were used. A standard anti-Rat-HRP secondary was used to detect caspase-8.

Data set [2] relates to NIH-3T3 cells expressing RIPK3-2xFv. Put plainly: AP1-induced RIPK3 oligomerization cell death, IncuCyte imaging. It is filed as cell-based, murine. Particulars: compared with RIPK3-1xFv. The source says:
Consequently, two Fv domains were attached to the C-terminus of RIPK3, creating a RIPK3-2xFv construct, with the goal of promoting AP1-induced crosslinking and oligomerization independent of the RHIM domain. See, FIG. 12A. […] Compare, FIGS. 16A and 15A, respectively. […] Cells expressing this RHIM-deficient RIPK3^ΔC-2xFv construct were nonresponsive to TNF+zVAD, previously reported to be dependent on RIPK1 RHIM/RIPK3 RHIM interactions. See, FIG. 13G. […] See, FIG. 16C and FIG. 16D, respectively. […] See, FIG. 16E. […] See, FIG. 16F.
Cell death assays were carried out using a 2-color IncuCyte Zoom in-incubator imaging system (Essen Biosciences.) Briefly, this system allows fully automated imaging of cells at set intervals in phase contrast as well as both red and green fluorescent channels. Cell death assays were carried out by treating cells with death-inducing compounds in 24 well tissue culture vessels (100,000 cells/well), in the presence of 100 nM of the cell-impermeable DNA binding fluorescent dyes Sytox Green (Life Technologies 57020) or Yoyo-3 (Y3606), which are excluded from healthy cells but rapidly enter dying cells upon membrane permeabilization, in a manner analogous to propidium iodide.
Resulting images were analyzed using the software package supplied with the IncuCyte imager, which allows precise analysis of the number of Sytox Green or Yoyo-3 positive cells present in each image. For each experiment, a minimum of three separate wells were treated with each experimental condition, and a minimum of 4 image fields were assessed per well. Percent cell death was calculated by treating a minimum of three distinct wells in each experiment with 100 nM of the cell permeable fluorescent dye Syto Green (S7559), which allows quantification of the total number of cells present in each field. Dead cell events acquired via Sytox Green or Yoyo-3 staining were divided by this total cell number to yield percent cell death at each timepoint. Error bars represent standard deviation from the mean of a minimum of three independent wells. Each result depicted is representative of at least 4 distinct experiments, each of which contained at least 3 technical replicates.

Data set [3] relates to NIH-3T3 cells stably expressing RIPK3-1xFv. Put plainly: AP1-induced RIPK3 dimerization cell death, IncuCyte imaging. The format is cell-based, murine. Particulars: AP1 alone, absence of TNF; depended on AP1 concentration. The text has this:
Fv domains rapidly dimerize in response to AP1 treatment that facilitated an investigation of the protein-protein interactions involved in RIPK3 activation and necroptosis (27a). For example, an Fv domain was appended to a C-terminus of RIPK3, that is adjacent to the RHIM domain, in an effort to mimic in situ RHIM-dependent interactions that define RIPK3 activation. RIPK3-1xFv was expressed in NIH-3T3 cells, a cell line that lacks endogenous RIPK3 expression and is therefore unresponsive to TNF-induced necroptosis. See, FIGS. 13A and 13B. Cell death responses of NIH-3T3 cells were quantified by construct expression over time using the IncuCyte imaging system, which allows precise quantification of cell death with high temporal resolution. For example, representative images were acquired from an IncuCyte Imager (data not shown). These images were NIH-3T3 cells stably expressing RIPK3-1xFV, treated with 10 nM AP1 (see FIG. 1B for a quantified graphical representation of this cell death). One set of images show a field of these cells undergoing RIPK3-dependent cell death; the media contains the cell impermeable DNA binding dye Sytox Green, which marks cells that have lost membrane integrity in green. Another set of images depicts the same image set, following analysis by the IncuCyte software package. This software counts each green (dead) cell in each image; counted cells are surrounded by purple halos. Each trace shown in this manuscript depicts data averaged from at least 3 independently treated wells of cells, each of which is imaged in at least 4 separate fields. Each experiment shown is representative of at least 3 separate replicates. All experiments on stably transduced cells is representative of at least three separate replicates performed on each of at least two distinct, independently-derived stable lines.
In the examples below, the following compounds were used: Recombinant murine TNF (Peprotech 315-01A) was used at 1 ng/ml unless otherwise specified; AP1 (Now commercialized by Clontech as “B/B Homodimerizer,” catalog #635059) was dissolved in ethanol to a concentration of 100 μM, then diluted in culture media to a final concentration of 30 nM unless otherwise indicated. zVAD (SM 13 Biochemicals SMFMK001) was dissolved in DMSO to a concentration of 50 mM, then diluted to 50 μM in culture media; Necrostatin-1(Sigma N9037-10MG) was dissolved in DMSO to a concentration of 30 mM, then diluted to 30 μM in culture media; TNFR-Fc (Fisher 430-RI-050) was used at a final concentration of 200 ng/ml; Shield drug was a kind gift of Dr. Tom Wandless and was used at a final concentration of 1 μM. SiGenome SMARTpool siRNAs were purchased from Dharmacon/Fisher. Pools targeting murine MLKL(M-061420-01), murine RIPK1 (M-040150-01), and murine caspase-8 (M-043044-01), as well as a non-targeting “scramble” pool(D-001206-14), were used. Two microliters of a 50 μM stock of these siRNAs were delivered to cells in 6-well format using Lipofectamine siRNA-Max reagent (Life Technologies 13778150) according to the manufacturer's instructions. Forty-eight hours later, these cells were re-plated into 24-well format for cell death assays, or harvested for western blot analysis of knockdowns.
These constructs were transduced into NIH-3T3 cells using standard protocols for helper-dependent retroviral transduction. Transduced cells were selected for 5 days in 1 μg/ml puromycin, then grown to confluence and sorted twice for homogenous GFP expression. […]

The subject of data set [4] is mice. As to conditions: delivered intravenously; cited from earlier work.
The conditions of data set [5]: compared with AP1510; cited from earlier work.
The target in data set [6] is FKBPs with a single amino acid substitution, Phe36Val (Fv) (Homo sapiens, UniProt P62942, F37V). As to conditions: FKBP Phe36Val (Fv); cited from earlier work.
In the next data set the target is wild type FKBP (Homo sapiens, UniProt P62942). As to conditions: relative to Phe36Val FKBP; cited from earlier work.
For the next data set, the system named is cells. As to conditions: cited from earlier work.
Data set [7] has as its system NIH-3T3 cells stably expressing RIPK3-1xFv. Put plainly: TNF-induced necroptosis, IncuCyte imaging. It is filed as cell-based, murine. As to conditions: TNF plus caspase inhibitor zVAD. As to the method: Expression of RIPK3-1xFv sensitized these cells to necroptosis induced by the combination of TNF and a caspase inhibitor (zVAD) in a manner analogous to that observed in Jax cells, a murine fibroblast line that expresses endogenous RIPK3. See, FIG. 13C. […]
Resulting images were analyzed using the software package supplied with the IncuCyte imager, which allows precise analysis of the number of Sytox Green or Yoyo-3 positive cells present in each image. For each experiment, a minimum of three separate wells were treated with each experimental condition, and a minimum of 4 image fields were assessed per well. Percent cell death was calculated by treating a minimum of three distinct wells in each experiment with 100 nM of the cell permeable fluorescent dye Syto Green (S7559), which allows quantification of the total number of cells present in each field. […]

Data set [8] concerns mice. Particulars: mouse, in vivo; cited from earlier work.
Another data set deals with splenocyte proliferation. As to conditions: relative to rapamycin; cited from earlier work.
The conditions of data set [9]: serial dilution in (aqueous) culture medium; cited from earlier work.

Sequence of FKBPs with a single amino acid substitution, Phe36Val (Fv) (P62942 whole entry F37V): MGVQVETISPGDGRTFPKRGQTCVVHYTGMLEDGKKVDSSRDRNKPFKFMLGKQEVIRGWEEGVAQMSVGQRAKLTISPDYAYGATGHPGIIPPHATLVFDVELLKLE
Sequence of wild type FKBP (P62942 whole entry): as the sequence (P62942 whole entry F37V) above, with V37F counted along it

In the case of “RIPK3-2xFv: RIPK3 with two Fv domains attached to the C-terminus”, in the data set on RIPK3 complexes, the “RIPK3 complexes formed by construct after dimerizer (AP1) treatment” value was “large molecular weight RIPK3 complexes were observed”. The “necrosome formation / interaction with RIPK1 and caspase-8 by construct” value in data set [1] is “interaction with RIPK1 and caspase-8, regardless of the presence of zVAD or Nec1”. In data set [2], the “necroptotic response to AP1” value is “faster and more robust necroptotic response”.

As for `CC[C@H](C(=O)N1CCCC[C@H]1C(=O)O[C@H](CCc1ccc(OC)c(OC)c1)c1cccc(OCC(=O)NCC(CNC(=O)COc2cccc([C@@H](CCc3ccc(OC)c(OC)c3)OC(=O)[C@@H]3CCCCN3C(=O)[C@@H](CC)c3cc(OC)c(OC)c(OC)c3)c2)CN(C)C)c1)c1cc(OC)c(OC)c(OC)c1` [AP1], the “RIPK3 activation and necroptosis upon AP1 addition” value in [3] is “limited RIPK3 activation and necroptosis”.

In the case of `CC[C@H](C(=O)N1CCCC[C@H]1C(=O)O[C@H](CCc1ccc(OC)c(OC)c1)c1cccc(OCC(=O)NCC(CNC(=O)COc2cccc([C@@H](CCc3ccc(OC)c(OC)c3)OC(=O)[C@@H]3CCCCN3C(=O)[C@@H](CC)c3cc(OC)c(OC)c(OC)c3)c2)CN(C)C)c1)c1cc(OC)c(OC)c(OC)c1` [AP20187], the “doses with maximal effects” value in the data set with mice [4] was 0.5 to 10 mg/kg. The pharmacokinetic properties result in [5] is listed as “better pharmacokinetic properties than AP1510”. Also, the affinity entry in [6] was “subnanomolar”. For the same compound, on wild type FKBP, the “lower affinity to the wild type protein” value is 1000 fold. Besides, the toxicity to cells result in the data set with cells is reported as “non-toxic”.

Turning to “RIPK3-1xFv: murine RIPK3 fused to a single copy of mutated FKBP (F36V), Fv domain, at the C-terminus”, in the data set on RIPK3 complexes, the “RIPK3 complexes formed by construct after dimerizer (AP1) treatment” value is “present in a combination of dimers and larger oligomeric complexes”. In addition, in [7], the “sensitization to necroptosis induced by TNF and zVAD by construct expression” value is recorded as “sensitized”.

AP21967: the “non-toxic dose in mice” value in the data set on mice [8] is given as “up to 30 mg/kg”. Also, the “less immunosuppressive than rapamycin” value in the data set with splenocyte proliferation was “greater than 1000 fold”. The “highest concentration ensuring complete solubility” value in [9] was not above 5 µM. Moreover, the “non-toxic concentration to cells” value in the data set on cells is recorded as “up to 1 μM”.

These data come from patent publication US20160160189A1, “Truncated Constructs of RIPK3 and Related Uses” (ST. JUDE CHILDREN'S RESEARCH HOSPITAL, priority 2013, published 2016).
